Measured values from patent US20030040515A1, “Regulation of platelet adhesion and aggregation” (priority 2002, published 2003).
Where two headings read alike, the source gives them in different places. Non-standard residues stand in square brackets, D forms with d. Residues, ends and D or L forms follow the SMILES beside them. *: point of attachment. Sta = CC(C)C[C@H](N)[C@@H](O)CC(=O)O; Isovaleryl = CC(C)CC(=O)*

Experiments:
[1] = tested on: vWF depolymerizing activity of BAECcm; test: Inhibitor profile of the vWF depolymerizing activity of BAEC conditioned medium; assay type: biochemical
purified vWF [2] = biological target: T1, purified vWF (Homo sapiens, UniProt P04275); test: Effect of purified reductants or thiol reagents on the average multimer size of purified vWF (agarose gel electrophoresis); assay type: biochemical; design: Purified vWF from human plasma was obtained from the Baker Medical Research Institute; tissue Baker Medical Research Institute, Melbourne; host or cells: human plasma; details: for effect on average multimer size of purified vWF: GSH 20 μM, PDI 10 nM, thioredoxin 10 nM, 24 hours at 37° C.
plasma vWF = plasma vWF (Homo sapiens, UniProt P04275); details: GSH 20 μM added to BAECcm
Experimental: To test whether exogenous GSH could augment vWF depolymerization by BAECcm, plasma vWF was incubated with BAECcm, or BAECcm and GSH (20 μM), and multimer size measured by either agarose gel electrophoresis or collagen binding.

purified vWF [3] = biological target: T1, purified vWF; test: Effect of purified reductants on affinity of purified vWF for collagen; assay type: biochemical; details: 24 hours at 37° C.; for effect on vWF collagen affinity: PDI at 10 nM
Experimental: Confluent HUVEC's were washed with M199 without FCS and incubated in M199 for up to 8.5 hours. The HUVECS were stimulated to release vWF by adding […] human α-thrombin after 0.5 hours. The thrombin was quenched after 2 hours incubation by adding 5 mM D-Phe-Pro-Arg-chloromethyl ketone. Samples of the conditioned medium were collected at discrete time intervals and analyzed for vWF by 1% agarose gel electrophoresis and Western blotting or vWF antigen levels and collagen binding affinity (not shown). vWF antigen levels were determined using ELISA by capturing the vWF with adsorbed anti-vWF polyclonal antibodies and detecting using peroxidase conjugated anti-vWF polyclonal antibodies (Favoloro et al., 1991). Collagen binding affinity was assessed by incubating the vWF in plastic wells coated with type I/III collagen for 1 hour and measuring the bound vWF using peroxidase conjugated anti-vWF antibodies (Favoloro et al., 1991). Large vWF multimers bind to collagen with up to ˜100-fold higher affinity than smaller multimers, therefore affinity for collagen is a useful indicator of average vWF multimer size.
The effect of incubation of purified vWF with GSH, PDI, or GSH and PDI, for 24 hours at 37° C. on the affinity of vWF for collagen was analysed. […] The half-maximal effect of GSH on vWF collagen affinity was ˜20 μM. […] The half-maximal effect of GSH in the presence on PDI on vWF collagen affinity was similar to that of GSH alone, ˜20 μM.

vWF = biological target: T2, vWF (Homo sapiens, UniProt P04275); test: Reduction in average multimer size of vWF in TTP plasma (agarose gel, collagen binding/vWF antigen); assay type: biochemical; details: chelation of Ca2+
T2 construct: from tissue; host or cells: plasma of a TTP patient (vWF); human platelet concentrates (TSP-1)
Experimental: TTP plasma was incubated with 20 mM Hepes, 0.14M NaCl, 1 mM CaCl2, 1 mM MgCl2, pH 7.4 buffer, conditioned media of HMEC-1 cells or the Hepes buffer containing TSP-1 for 1 or 24 hours at 37° C. Aliquots of the reactions were diluted 10-fold in the Hepes buffer and assayed for collagen binding affinity and vWF antigen as described by Favaloro et al. (1991). On some occasions, aliquots of the reactions were resolved on 1% agarose gel electrophoresis (Ruggeri and Zimmerman, 1980), transferred to PVDF membrane (DuPont NEN, Boston, Mass.), blotted with 2 μg per ml of horse radish peroxidase conjugated anti-vWF polyclonal antibodies (DAKO Corporation, Carpinteria, Calif.) and visualized using chemiluminescence (DuPont NEN, Boston, Mass.).
TSP-1 is a major component of platelet α-granules which is secreted upon platelet activation and aggregation. TSP-1 was purified to homogeneity from pooled outdated human platelet concentrates (Murphy-Ullrich and Mosher. 1985; Hogg et al., 1997) and tested for vWF reductase activity. Buffers containing 0.1 mM CaCl2 were used throughout the chromatographic purification of TSP1. […] In particular, the very large multimers were lost (see bracket in FIG. 3A). […] TSP-1-mediated reduction in vWF multimer size was concentration- and time-dependent (FIG. 3B). Three different preparations of platelet TSP-1 had the same vWF reducing activity (not shown). It is noteworthy that the molar ratio of TSP-1 to vWF influenced the extent of reduction in vWF multimer size (FIG. 3B). The vWF reductase activity in endothelial cell conditioned medium is inhibited by EDTA. In accordance with this observation, chelation of Ca^2+ with EDTA ablated the vWF reductase activity of TSP-1 (not shown).

purified vWF [4] = biological target: T1, purified vWF; test: MPB labelling assay for reduction of vWF disulfide bond(s) / formation of new thiols in vWF; assay type: biochemical; design: Purified vWF from human plasma was obtained from the Baker Medical Research Institute; tissue Baker Medical Research Institute, Melbourne (vWF); host or cells: human plasma (vWF); human platelet concentrates (TSP-1); details: chelation of Ca2+ in the reactions
Experimental: The biotin-linked maleimide, MPB, was used to measure reduction of vWF disulfide bond(s) in BAECcm. […] Free thiol(s) formed in vWF by reduction of disulfide bonds bond(s) were labelled with MPB (100 μM) and the unreacted MPB was quenched with GSH (200 μM). N-ethylmaleimide reacts rapidly with free thiols with a second order rate constant of ˜10^4 M^−1s^−1 at pH 8 (Torchinski and Dixon, 1974). Therefore, the half life for reaction of free thiols in vWF with the maleimide moiety of MPB was anticipated to be in the order of a few seconds. Aliquots of the reactions containing MPB-labelled vWF were incubated in ELISA plate wells coated with anti-vWF polyclonal antibodies. The adsorbed vWF was incubated with streptavidin peroxidase to measure the incorporated MPB. The control for vWF labelling was incubation and labelling of BAECcm alone, prior to addition of vWF. This reaction represented the contribution to the assay of MPB labelling of endogenous vWF and/or other vWF binding proteins in the BAECcm. […]
Reduction of disulfide bonds in vWF was anticipated to result in a net increase in free thiols in the vWF population. […] The MPB-labeled vWF was incubated in ELISA plate wells coated with anti-human vWF polyclonal antibodies and the biotin label was detected using StreptABComplex/HRP (DAKO Corporation, Carpinteria, Calif.).

[5] = measured by agarose gel electrophoresis or collagen binding, BAECcm treated with agent

Compound: NC(=O)CI [IAM, iodoacetamide]
- effect on vWF depolymerizing activity of BAECcm [1, 5]: inactivated
- effect on average multimer size of vWF (purified vWF [2]; incubation of vWF with IAM or NEM alone): did not have any discernible effect

Compound: CC(C)CC(=O)N[C@H](C(=O)N[C@H](C(=O)N[C@@H](CC(C)C)[C@@H](O)CC(=O)N[C@@H](C)C(=O)N[C@@H](CC(C)C)[C@@H](O)CC(=O)O)C(C)C)C(C)C [pepstatin] (Isovaleryl-VV[Sta]A[Sta]-OH)
- effect on vWF depolymerizing activity of BAECcm [1, 5]: not inhibited

Compound: N[C@@H](CCC(=O)N[C@@H](CS)C(=O)NCC(=O)O)C(=O)O [GSH, reduced glutathione]
- vWF depolymerization over that by BAECcm alone (plasma vWF; agarose gel electrophoresis): small increase
- collagen affinity of vWF (plasma vWF; p<0.05): significant reduction
- effect on average multimer size of purified vWF (purified vWF [2]): reduction of the average multimer size of vWF
- effect on vWF collagen affinity (purified vWF [3]): reduced the collagen affinity of vWF
- EC50 (purified vWF [3]; GSH alone, read-out: half-maximal effect on vWF collagen affinity): ~20 µM
- EC50 (purified vWF [3]; GSH in the presence of PDI, read-out: half-maximal effect on vWF collagen affinity in the presence of PDI): ~20 µM

Compound: thioredoxin
- effect on average multimer size of purified vWF (purified vWF [2]): reduction of the average multimer size of vWF

Compound: CC(=O)N[C@@H](CC(C)C)C(=O)N[C@@H](CC(C)C)C(=O)N[C@H](C=O)CCCNC(=N)N [leupeptin]
- effect on vWF depolymerizing activity of BAECcm [1, 5]: not inhibited

Compound: CC(C)C[C@H](NC(=O)[C@H]1O[C@@H]1C(=O)O)C(=O)NCCCCN=C(N)N [E-64]
- effect on vWF depolymerizing activity of BAECcm [1, 5]: inactivated

Compound: CC(C)C[C@H](NC(=O)[C@@H](NC(=O)N[C@@H](Cc1ccccc1)C(=O)O)[C@@H]1CCN=C(N)N1)C(=O)N[C@H](C=O)Cc1ccccc1 [chymostatin]
- effect on vWF depolymerizing activity of BAECcm [1, 5]: not inhibited

Compound: aprotinin
- effect on vWF depolymerizing activity of BAECcm [1, 5]: not inhibited

Compound: NCCc1ccc(S(=O)(=O)F)cc1 [4-(2-aminoethyl)benzenesulfonylfluoride]
- effect on vWF depolymerizing activity of BAECcm [1, 5]: not inhibited

Compound: PDI: purified reductant
- effect on average multimer size of purified vWF (purified vWF [2]): reduction of the average multimer size of vWF
- effect on vWF collagen affinity (purified vWF [3]): reduced vWF collagen affinity to the same extent as 20 μM GSH

Compound: O=C(O)CN(CCN(CC(=O)O)CC(=O)O)CC(=O)O [EDTA]
- effect on vWF depolymerizing activity of BAECcm [1]: ablated activity
- effect on vWF reductase activity of TSP-1 (vWF): ablated
- effect on TSP-1-catalysed formation of free thiols in vWF (purified vWF [4]): ablated

Compound: CC(C)C[C@H](NP(=O)(O)O[C@@H]1O[C@@H](C)[C@H](O)[C@@H](O)[C@H]1O)C(=O)N[C@@H](Cc1c[nH]c2ccccc12)C(=O)O [phosphoramidon]
- effect on vWF depolymerizing activity of BAECcm [1, 5]: not inhibited
